Reference: US20210255168A1, “A METHOD OF PRECISION CANCER THERAPY” (KING FAISAL SPECIALIST HOSPITAL & RESEARCH CENTRE, priority 2018, published 2021)

Test system: MDA-MB-231 cells
Assay: Migration assay (RTCA, without Matrigel)
Assay type: cell-based
Conditions: MDA-MB-231, thirty hours after treatment
Procedure: MDA-MB-231 cells were seeded in 6-well cell culture plates and incubated overnight. The cells were treated with the selected protein kinase inhibitors and incubated overnight. Then they were reseeded onto the invasion chamber in serum-free media at a density of 2×10^4 cells per well using 16-well CIM-Plate in Real-Time Cell Analysis (RTCA) Dual Plate (DP) Analyzer (ACEA Bioscinece, California, USA) that was loaded inside the incubator. The lower chambers to which cells will migrate were prepared to contain chemoattractant consisted of 10% FBS. For invasion assays, Matrigel (BioCoat, BD Biosciences, MA) which resembles the complex extracellular environment found in many tissues was prepared and used to coat the upper chamber of CIM plates. Invasion and migration were monitored continuously over 72-hour period using RTCA Software (ACEA Bioscinece, California, USA). The RTCA Instrument automatically monitors the cells every 15 minutes for 100 repetitions. For proliferation assays, the same principle was applied using a single chamber containing complete DMEM media (FIG. 10).
Based on the dose-response curve, 330 nM was selected to be used as a standard dose for the experiments. In the invasion assay, MDA-MB-231 cells were treated with volasertib or DMSO for 24 hr, then invasion was monitored for 30 hr.

CC[C@@H]1C(=O)N(C)c2cnc(Nc3ccc(C(=O)N[C@H]4CC[C@H](N5CCN(CC6CC6)CC5)CC4)cc3OC)nc2N1C(C)C [volasertib]
cell migration: reduce breast cancer cells migration
